Each block holds one compound with its values, some of them ahead of it.
What was measured:
PKC-theta = PKC-theta (Homo sapiens, UniProt Q04759); assay: luciferase assay for inhibition of the kinase activity of PKC-theta; type: biochemical; settings: luciferase assay of US 2005/0124640
Protocol: The preparation of these compounds and the luciferase assay used to determine the IC50 for inhibition of the kinase activity of PKC-theta are described in US Patent Application Publication number 2005/0124640. For the in vitro and ex vivo assays above, compounds were dissolved in DMSO. T cells were pretreated with indicated concentrations of the inhibitors or DMSO control for 30 min at 37° C. and washed three times.

CD4+CD25+ Treg cells [1] = assay: Treg/Teff co-culture on anti-CD3 mAb, IFN-gamma secretion by ELISA; type: cell-based, human
Protocol: (§1) Treg cells and CD4^+CD25^− Teff (non-Treg) cells were treated with Compound Ia at 0.001-1 microM (a-b) for 30 min, or at 1 microM for 0-60 min (c). Treated cells were mixed with CD4^+CD25^− T (Teff) cells at 1:9 ratio and plated on immobilized anti-CD3 mAb. The supernatants were analyzed for IFN-gamma after 24-48 hours (a and c). Cell proliferation was determined after 96 hours (b). Average of four different experiments is shown.
Treg were treated with 1 microM PKC-theta inhibitors with different IC50 values as indicated on graph. Treated cells were mixed with CD4^+CD25^− T (Teff) cells at 1:9 ratio and plated on immobilized anti-CD3 mAb. The supernatants were analyzed for IFN-gamma after 24-48 hours. An average of four different experiments is shown. As shown in the graph, the enhancement of suppressive effect on IFN-gamma secretion generally correlates with the potency of the inhibitors.
Treated Treg and non-Treg, or siRNA-transfected Treg were mixed with CD4^+CD25^− T (Teff) cells at 1:9 ratio and plated on immobilized anti-CD3 mAb. The supernatants were analyzed for IFN-gamma after 24-48 hours. An average of four different experiments is shown.
CD4^+CD25^+ regulatory T cells (Tregs) suppress the function of CD4^+ and CD8^+ effector cells (Teff) through an antigen receptor and cell contact mechanism. […] We investigated whether inhibition of PKC-theta may affect the suppressive function of human CD4^+CD25^+ Treg cells in vitro. For this purpose, we treated CD4^+CD25^+ Treg or CD4^+CD25^− Teff cells (Treg or non-Treg respectively in FIGS. 1a and 1b) with a specific PKC-theta inhibitor, namely, Compound Ia, washed and cultured the cells with untreated Teff cells in a ratio of 1:9 on stimulatory anti-CD3 antibodies. IFN-gamma secretion and cell proliferation were measured after 24 and 96 hours respectively. […] Moreover, the effect of PKC-theta inhibitor on Treg function was time-dependent; maximal levels of enhanced suppressive function were achieved after 30 min of Treg treatment with the compound (FIG. 1c).
(§2) CD4^+CD25^+ Treg and CD4^+CD25^− Teff cells were purified from the peripheral blood of healthy human donors or from 25 patients with Rheumatoid arthritis in different stages (accordingly to disease activity score (DAS)) as described in the literature M. L. Prevoo, et al., Arthritis and rheumatism, 1995, 38, 44; A. Zanin-Zhorov, et al., J. Clin. Invest, 2006, 116, 2022). […] Cytokine secretion was determined by ELISA as previously described A. Zanin-Zhorov, et al., ibid., 2006), using Human IFN-gamma Cytose™ (Biosource; Camarillo, Calif.). Proliferation was assessed by Alamar Blue™ assay (Invitrogen) as previously described (S. A. Ahmed, et al., J. immunological Methods, 1994, 170, 211-224). […]

CD4+CD25+ Treg cells [2] = assay: Treg/Teff co-culture on anti-CD3 mAb, cell proliferation by Alamar Blue; type: cell-based, human; settings: Treg treated 0.001-1 microM 30 min, washed, Treg/Teff 1:9, anti-CD3; proliferation after 96 h (FIG. 1b)
Protocol: as §1
CD4^+CD25^+ regulatory T cells (Tregs) suppress the function of CD4^+ and CD8^+ effector cells (Teff) through an antigen receptor and cell contact mechanism. […] IFN-gamma secretion and cell proliferation were measured after 24 and 96 hours respectively. […]
as §2

CD4+CD25+ Treg cells [3] = assay: T cell transfer model of colitis with ex vivo treated Treg; type: in vivo, C57BL/10.PL TCR alpha-/-beta-/- mice; settings: inhibitor treated Treg
Protocol: (§3) Colitis was induced in C57BL/10.PL TCR alpha^−/−beta^−/− mice as described in Methods summary. 5a—numbers of mice were 5 (PBS), 8 (Teff), 7 (Teff/Treg control), 7 (Teff/Treg PKC-theta inhibitor). 5b-Histology slides of distal colon for the different groups. Normal histology is observed in PKC-theta treated mice. 5c, 5d-Freshly purified Treg from healthy donors and RA patients were treated or not with PKC-theta inhibitor for 30 min at 1 microM, washed three times, mixed with CD4^+CD25^− T cells at ratio 1:3, and plated on anti-CD3 mAb. The supernatants were analyzed for IFN-gamma after 24-48 hours. Combined data of three independent experiments are presented. % Treg-mediated inhibition was calculated as: 1−level of IFN-gamma in presence of Treg/level of IFN-gamma in absence of Treg)φ100%. P values were calculated by t-test.
Next, we determined the ability of PKC-theta inhibitor Ia to up-regulate Treg function in vivo using a colitis model in TCR alpha^−/−beta^−/− mice induced by transfer of effector CD4^+CD25^−CD45RB^+ Teff cells (F. Powrie, et al., J. Exp. Med. 1996, 183, 2669).
[…] Disease progression was monitored by body weight loss, diarrhea and histology analysis as previously described (F. Powrie, et al., J. Exp. Med. 1996, 183, 2669). P values were determined by Mann-Whitney test or two-tailed t-test by using the GraphPad Prism software (San Diego, Calif.).

[4] = tested on: Treg cells purified from RA patients; assay: Suppression of IFN-gamma from autologous Teff by Treg purified from RA patients; type: cell-based, human; settings: Treg from 25 RA patients, 1 microM 30 min, Treg/Teff 1:3, 24-48 h (FIG. 5d)
Protocol: as §3, with “t-test. […]” for “t-test.”
as §2, with “Calif.).” for “Calif.). Proliferation was assessed by Alamar Blue™ assay (Invitrogen) as previously described (S. A. Ahmed, et al., J. immunological Methods, 1994, 170, 211-224).”

PKC-theta, sequence (Q04759 whole entry): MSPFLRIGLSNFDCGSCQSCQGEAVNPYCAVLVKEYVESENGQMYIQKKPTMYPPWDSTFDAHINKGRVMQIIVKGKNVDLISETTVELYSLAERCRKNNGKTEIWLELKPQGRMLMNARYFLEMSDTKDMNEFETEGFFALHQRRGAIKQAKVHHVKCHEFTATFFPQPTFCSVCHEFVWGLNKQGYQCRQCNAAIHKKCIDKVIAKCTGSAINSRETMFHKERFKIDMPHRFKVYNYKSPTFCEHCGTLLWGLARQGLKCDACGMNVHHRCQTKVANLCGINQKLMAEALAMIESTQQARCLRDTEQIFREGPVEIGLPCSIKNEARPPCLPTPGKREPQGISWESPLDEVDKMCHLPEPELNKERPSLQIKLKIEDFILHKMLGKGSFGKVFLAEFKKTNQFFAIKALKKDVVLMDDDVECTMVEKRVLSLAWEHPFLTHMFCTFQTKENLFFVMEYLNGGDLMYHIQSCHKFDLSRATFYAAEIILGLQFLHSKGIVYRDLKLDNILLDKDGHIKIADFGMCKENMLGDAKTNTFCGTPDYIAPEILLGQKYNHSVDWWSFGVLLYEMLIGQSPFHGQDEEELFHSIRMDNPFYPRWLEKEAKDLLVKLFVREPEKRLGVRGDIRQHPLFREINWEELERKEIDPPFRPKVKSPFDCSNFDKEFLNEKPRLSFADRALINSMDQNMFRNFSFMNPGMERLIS

SMILES: O=[N+]([O-])c1cnc(SCc2ccccc2Cl)nc1NCC1CCNCC1 [Ic]
IC50 (PKC-theta): 8 nM

SMILES: O=[N+]([O-])c1cnc(NCC2CCNCC2)nc1NCc1ccccc1OC(F)(F)F [Id]
IC50 (PKC-theta): 300 nM

SMILES: N[C@H]1CC[C@H](CNc2nc(NCc3ccccc3OC(F)(F)F)ccc2[N+](=O)[O-])CC1 [Ie]
IC50 (PKC-theta): 1000 nM

Stronger by IC50 (PKC-theta), values ahead:

IC50 (PKC-theta): 0.7 nM
SMILES: NC[C@H]1CC[C@H](CNc2nc(NCc3ccccc3OC(F)(F)F)ncc2[N+](=O)[O-])CC1 [Compound Ia]
induction of suppressive activity in treated Teff (non-Treg) added to untreated responder Teff (CD4+CD25+ Treg cells [1]; CD4+CD25- Teff treated, 1:9 ratio (FIGS. 1a and 1b)): does not induce suppressive activity
suppressive ability of Treg cells (IFN-gamma production by Teff) (CD4+CD25+ Treg cells [1]; Treg treated 0.001-1 microM 30 min, washed, Treg/Teff 1:9, anti-CD3, IFN-gamma after 24 h (FIG. 1a)): significantly up-regulated
treatment time for maximal levels of enhanced suppressive function (CD4+CD25+ Treg cells [1]; Treg treated at 1 microM for 0-60 min, IFN-gamma readout (FIG. 1c)): 30 min
ability of Treg cells to inhibit IFN-gamma secretion in Teff cells (CD4+CD25+ Treg cells [1]; treated or siRNA-transfected Treg, Treg/Teff 1:9, 24-48 h (FIG. 4)): increased
suppressive ability of Treg cells (cell proliferation) (CD4+CD25+ Treg cells [2]): significantly up-regulated
mice with normal weight gain and normal histology of the distal colon (CD4+CD25+ Treg cells [3]; 1:4 ratio of Treg/Teff): 7 of 8
protection of the recipient mice from colitis (CD4+CD25+ Treg cells [3]; 1:4 ratio of Treg/Teff (FIGS. 5a and 5b)): ~100%
suppressive function of Treg cells purified from RA patients (IFN-gamma) [4]: significantly increased

IC50 (PKC-theta): 1 nM
SMILES: N[C@H]1CC[C@H](CNc2nc(NCc3ccccc3OC(F)(F)F)ncc2[N+](=O)[O-])CC1 [Ib]

From patent US20120196919A1, “EX-VIVO TREATMENT OF IMMUNOLOGICAL DISORDERS WITH PKC-THETA INHIBITORS” (NEW YORK UNIVERSITY, priority 2009, published 2012)
